The assay has as its target LRRK2 (Homo sapiens, UniProt Q5S007). Kind of assay: LRRK2 WT assay (Assay B, radiometric 33P-ATP filter binding). The note with it: Assay B (values marked *). The assay is classed as biochemical. As to the method:
LRRK2(human) is incubated with 50 mM HEPES pH 8.0, 0.2 mM EDTA, 0.01% Brij-35, 1% (w/v) BSA, 5 mM DTT, 250 Mm […], 10 mM Magnesium acetate and [[…]]-ATP (specific activity and concentration as required).
The reaction is initiated by the addition of the Mg/ATP mix.

A value given as a limit tells only on which side of the number the result lay.

Sequence of LRRK2 (Q5S007 whole entry): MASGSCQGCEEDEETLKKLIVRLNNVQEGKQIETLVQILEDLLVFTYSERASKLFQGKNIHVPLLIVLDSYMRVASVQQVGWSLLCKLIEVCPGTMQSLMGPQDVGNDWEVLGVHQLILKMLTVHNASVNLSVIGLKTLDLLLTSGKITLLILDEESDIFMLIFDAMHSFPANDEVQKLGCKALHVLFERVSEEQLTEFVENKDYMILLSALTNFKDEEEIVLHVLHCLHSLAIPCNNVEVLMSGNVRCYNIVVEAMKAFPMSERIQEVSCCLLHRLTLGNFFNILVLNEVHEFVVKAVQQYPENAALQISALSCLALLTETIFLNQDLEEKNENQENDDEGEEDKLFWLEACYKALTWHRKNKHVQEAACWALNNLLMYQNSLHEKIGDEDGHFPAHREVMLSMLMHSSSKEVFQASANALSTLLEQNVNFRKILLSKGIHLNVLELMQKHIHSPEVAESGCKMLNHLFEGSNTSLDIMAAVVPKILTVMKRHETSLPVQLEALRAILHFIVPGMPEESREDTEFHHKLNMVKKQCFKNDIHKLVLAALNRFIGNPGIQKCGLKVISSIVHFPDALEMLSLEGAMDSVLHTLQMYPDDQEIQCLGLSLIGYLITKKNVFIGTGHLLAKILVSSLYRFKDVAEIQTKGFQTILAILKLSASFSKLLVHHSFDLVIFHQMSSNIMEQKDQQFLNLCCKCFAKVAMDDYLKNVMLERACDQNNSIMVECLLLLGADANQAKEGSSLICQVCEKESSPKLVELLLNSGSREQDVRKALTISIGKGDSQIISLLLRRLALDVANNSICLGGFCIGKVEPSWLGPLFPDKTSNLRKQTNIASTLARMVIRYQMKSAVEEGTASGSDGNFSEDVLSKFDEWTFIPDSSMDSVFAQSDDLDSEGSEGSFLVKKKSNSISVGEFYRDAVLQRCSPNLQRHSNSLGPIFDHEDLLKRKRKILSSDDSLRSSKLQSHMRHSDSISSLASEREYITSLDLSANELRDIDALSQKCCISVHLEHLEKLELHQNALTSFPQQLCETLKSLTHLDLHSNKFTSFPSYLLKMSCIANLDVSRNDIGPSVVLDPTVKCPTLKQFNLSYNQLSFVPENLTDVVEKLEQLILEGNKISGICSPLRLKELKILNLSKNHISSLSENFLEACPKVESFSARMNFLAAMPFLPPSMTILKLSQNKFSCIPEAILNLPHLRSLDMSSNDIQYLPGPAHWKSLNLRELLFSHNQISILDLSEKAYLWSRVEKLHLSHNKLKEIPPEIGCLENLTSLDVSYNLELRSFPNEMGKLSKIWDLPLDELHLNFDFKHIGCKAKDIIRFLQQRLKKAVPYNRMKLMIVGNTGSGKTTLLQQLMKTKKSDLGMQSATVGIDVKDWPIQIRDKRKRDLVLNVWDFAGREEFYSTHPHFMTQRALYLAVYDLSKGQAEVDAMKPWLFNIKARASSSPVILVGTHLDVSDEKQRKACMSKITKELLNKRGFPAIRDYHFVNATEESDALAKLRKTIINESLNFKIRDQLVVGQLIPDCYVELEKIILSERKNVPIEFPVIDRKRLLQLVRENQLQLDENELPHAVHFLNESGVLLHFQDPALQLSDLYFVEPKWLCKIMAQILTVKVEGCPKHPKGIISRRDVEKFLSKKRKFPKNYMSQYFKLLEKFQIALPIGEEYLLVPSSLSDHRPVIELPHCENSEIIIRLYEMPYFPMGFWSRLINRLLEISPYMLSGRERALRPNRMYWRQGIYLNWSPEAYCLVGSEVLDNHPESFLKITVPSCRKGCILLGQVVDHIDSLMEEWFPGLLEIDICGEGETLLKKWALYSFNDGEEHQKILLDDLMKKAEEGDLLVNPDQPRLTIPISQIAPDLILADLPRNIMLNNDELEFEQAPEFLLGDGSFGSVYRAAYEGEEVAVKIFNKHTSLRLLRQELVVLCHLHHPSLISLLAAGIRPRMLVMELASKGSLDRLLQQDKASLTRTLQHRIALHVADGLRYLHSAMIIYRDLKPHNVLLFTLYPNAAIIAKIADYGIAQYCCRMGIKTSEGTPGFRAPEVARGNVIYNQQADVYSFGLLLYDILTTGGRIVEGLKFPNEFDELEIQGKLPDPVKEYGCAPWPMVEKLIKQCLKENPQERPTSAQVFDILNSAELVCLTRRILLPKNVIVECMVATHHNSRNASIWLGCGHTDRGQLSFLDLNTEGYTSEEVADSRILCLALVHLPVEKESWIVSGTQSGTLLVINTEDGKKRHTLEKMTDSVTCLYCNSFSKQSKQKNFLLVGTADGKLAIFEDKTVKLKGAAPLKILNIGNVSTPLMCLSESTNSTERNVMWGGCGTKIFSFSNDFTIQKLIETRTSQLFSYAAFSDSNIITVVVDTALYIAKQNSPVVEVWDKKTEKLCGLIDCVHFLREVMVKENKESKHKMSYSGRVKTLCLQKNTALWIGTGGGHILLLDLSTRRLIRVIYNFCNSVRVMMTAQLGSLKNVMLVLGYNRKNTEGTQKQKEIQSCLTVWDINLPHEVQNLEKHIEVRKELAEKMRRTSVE

As usually defined, the IC50 is the concentration needed to halve the response being measured. A high value points to weaker potency. `CO[C@H]1COC[C@H]1n1c(C#N)cc2cnc(Nc3cn(C(C)C#N)nc3OC3CC3)nc21` (stereo partly drawn) [Example 58, 2-((1-(1-Cyanoethyl)-3-cyclopropoxy-1H-pyrazol-4-yl)amino)-7-((3R,4R)-4-methoxytetrahydrofuran-3-yl)-7H-pyrrolo[2,3-d]pyrimidine-6-carbonitrile] displayed a concentration for half-maximal inhibition (IC50) of 15 nM. For `CO[C@H]1COC[C@H]1n1c(C#N)cc2cnc(Nc3cn(C(C)(C)C#N)nc3OC3CC3)nc21` [Example 59, 2-((1-(2-Cyanopropan-2-yl)-3-cyclopropoxy-1H-pyrazol-4-yl)amino)-7-((3R,4R)-4-methoxytetrahydrofuran-3-yl)-7H-pyrrolo[2,3-d]pyrimidine-6-carbonitrile], the IC50 amounted to 31 nM.

Compound `CO[C@H]1COC[C@H]1n1c(C#N)cc2cnc(Nc3cn(C(C)(C)C#N)nc3OC(C)C)nc21` [Example 60, 2-((1-(2-Cyanopropan-2-yl)-3-isopropoxy-1H-pyrazol-4-yl)amino)-7-((3R,4R)-4-methoxytetrahydrofuran-3-yl)-7H-pyrrolo[2,3-d]pyrimidine-6-carbonitrile] had an IC50 of 42 nM.

Consider `CO[C@H]1COC[C@H]1n1c(C#N)cc2cnc(Nc3cn(C(C)C)nc3OC3CC3)nc21` [Example 61, 2-((3-Cyclopropoxy-1-isopropyl-1H-pyrazol-4-yl)amino)-7-((3R,4R)-4-methoxytetrahydrofuran-3-yl)-7H-pyrrolo[2,3-d]pyrimidine-6-carbonitrile], for which the IC50 came to 133 nM. With `CO[C@H]1COC[C@H]1n1c(C#N)cc2cnc(Nc3cn(C)nc3OC(C)C)nc21` [Example 62, 2-((3-Isopropoxy-1-methyl-1H-pyrazol-4-yl)amino)-7-((3R,4R)-4-methoxytetrahydrofuran-3-yl)-7H-pyrrolo[2,3-d]pyrimidine-6-carbonitrile] the figure was 114 nM. `CO[C@H]1COC[C@H]1n1c(C#N)cc2cnc(Nc3cn(C4COC4)nc3OC(C)C)nc21` [Example 63, 2-((3-Isopropoxy-1-(oxetan-3-yl)-1H-pyrazol-4-yl)amino)-7-((3R,4R)-4-methoxytetrahydrofuran-3-yl)-7H-pyrrolo[2,3-d]pyrimidine-6-carbonitrile]: the half-inhibitory concentration (IC50) came out at 201 nM.

`CO[C@H]1COC[C@H]1n1c(C#N)cc2cnc(Nc3cn(C4COC4)nc3OC3CC3)nc21` [Example 64, 2-((3-Cyclopropoxy-1-(oxetan-3-yl)-1H-pyrazol-4-yl)amino)-7-((3R,4R)-4-methoxytetrahydrofuran-3-yl)-7H-pyrrolo[2,3-d]pyrimidine-6-carbonitrile]: the IC50 amounted to 135 nM. With `CO[C@H]1COC[C@H]1n1c(C#N)cc2cnc(Nc3cn(C)nc3OC3CC(F)(F)C3)nc21` [Example 65, 2-((3-(3,3-Difluorocyclobutoxy)-1-methyl-1H-pyrazol-4-yl)amino)-7-((3R,4R)-4-methoxytetrahydrofuran-3-yl)-7H-pyrrolo[2,3-d]pyrimidine-6-carbonitrile] the figure was 187 nM; with `CC[C@@H](C)Oc1nn(C)cc1Nc1ncc2cc(C#N)n([C@@H]3COC[C@@H]3OC)c2n1` [Example 66, 2-((3-((R)-sec-Butoxy)-1-methyl-1H-pyrazol-4-yl)amino)-7-((3R,4R)-4-methoxytetrahydrofuran-3-yl)-7H-pyrrolo[2,3-d]pyrimidine-6-carbonitrile], 119 nM; with `CC[C@H](C)Oc1nn(C)cc1Nc1ncc2cc(C#N)n([C@@H]3COC[C@@H]3OC)c2n1` [Example 67, 2-((3-((S)-sec-Butoxy)-1-methyl-1H-pyrazol-4-yl)amino)-7-((3R,4R)-4-methoxytetrahydrofuran-3-yl)-7H-pyrrolo[2,3-d]pyrimidine-6-carbonitrile], 297 nM.

Take `CO[C@H]1COC[C@H]1n1c(C#N)cc2cnc(Nc3ccnc4c3OC(C)(C)CC4)nc21` [Example 68, 2-((2,2-Dimethyl-3,4-dihydro-2H-pyrano[3,2-b]pyridin-8-yl)amino)-7-((3R,4R)-4-methoxytetrahydrofuran-3-yl)-7H-pyrrolo[2,3-d]pyrimidine-6-carbonitrile]: the IC50 was more than 1000 nM. For `CO[C@H]1COC[C@H]1n1c(C#N)cc2cnc(Nc3ccnc4c3O[C@H](C)CCO4)nc21` [Example 69, 7-((3R,4R)-4-Methoxytetrahydrofuran-3-yl)-2-(((R)-2-methyl-3,4-dihydro-2H-[1,4]dioxepino[2,3-b]pyridin-9-yl)amino)-7H-pyrrolo[2,3-d]pyrimidine-6-carbonitrile], the IC50 was found to be 597 nM.

As to `CC(C)Oc1nn(C)cc1Nc1ncc2cc(C#N)n(C3COC3)c2n1` [Example 75, 2-((3-Isopropoxy-1-methyl-1 H-pyrazol-4-yl)amino)-7-(oxetan-3-yl)-7H-pyrrolo[2,3-d]pyrimidine-6-carbonitrile], the IC50 was found to be 44 nM. This IC50 is about 14-fold lower than that of the compound before. Consider `[2H]c1c(Nc2ncc3cc(C#N)n([C@H]4COC[C@@H]4C)c3n2)c(OC2COC2)nn1C` [Example 94, 2-((1-Methyl-3-(oxetan-3-yloxy)-1 H-pyrazol-4-yl-5-d)amino)-7-((3R,4R)-4-methyltetrahydrofuran-3-yl)-7H-pyrrolo[2,3-d]pyrimidine-6-carbonitrile], for which the IC50 turned out to be 7 nM. Compared with the last compound, the IC50 is about 6.3-fold lower. For `[2H]c1c(Nc2ncc3cc(C#N)n([C@@H](C)COC)c3n2)c(OC2CC2)nn1COC` [Example 95, (S)-2-((3-cyclopropoxy-1-(methoxymethyl)-1H-pyrazol-4-yl-5-d)amino)-7-(1-methoxypropan-2-yl)-7H-pyrrolo[2,3-d]pyrimidine-6-carbonitrile], the half-inhibitory concentration (IC50) worked out at 16 nM. Compared with the last compound, the IC50 is about 2.3-fold higher. The compound `[2H]c1c(Nc2ncc3cc(C#N)n([C@H]4COC[C@@H]4C)c3n2)c(OC2COC2C)nn1C` (stereo partly drawn) [Example 97, 2-((1-methyl-3-((2-methyloxetan-3-yl)oxy)-1H-pyrazol-4-yl-5-d)amino)-7-((3R,4R)-4-methyltetrahydrofuran-3-yl)-7H-pyrrolo[2,3-d]pyrimidine-6-carbonitrile] returned a half-inhibitory concentration (IC50) of 12 nM.

In turn, `[2H]c1c(Nc2ncc3cc(C#N)n([C@H]4COC[C@@H]4C)c3n2)c(OC2COC2)nn1C([2H])([2H])[2H]` [Example 98, 2-((1-(methyl-d3)-3-(oxetan-3-yloxy)-1H-pyrazol-4-yl-5-d)amino)-7-((3R,4R)-4-methyltetrahydrofuran-3-yl)-7H-pyrrolo[2,3-d]pyrimidine-6-carbonitrile] displayed an IC50 of 12 nM.

The values are drawn from patent US20240383901A1, “SUBSTITUTED PYRROLO[2,3-D]PYRIMIDINES, THEIR PREPARATION AND THEIR THERAPEUTIC APPLICATION” (SANOFI, priority 2021, published 2024).
